Results as given in US8906925B2, “Pyrido[4,3-B]indoles containing rigid moieties” (Medivation Technologies, Inc., priority 2008, dated 2014).
pIC50: −log10 of the molar value.

Assays:
histamine receptor H1 = histamine receptor H1 (Homo sapiens, UniProt P35367); assay: Histamine H1 radioligand binding ([3H]Pyrilamine); details: for inhibition at 1 µM: read-out: Histamine Binding (1 μM) H1, percent inhibition of specific binding, 1 μM
Outline: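 Values are percent inhibition of specific [3H]pyrilamine (1.2 nM) binding with compounds at ≤1 μM (1% DMSO vehicle); 180 min incubation at 25 °C, pH 7.4 Tris buffer, on CHO-expressed human H1 receptor; 1 μM pyrilamine defined nonspecific binding, bound ligand counted after filtration.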

[1] = molecular target: human dopamine D2L receptor (Homo sapiens, UniProt P14416); assay: Dopamine D2L radioligand binding ([3H]Spiperone); details: percent inhibition of specific binding, compound at 1 μM; for inhibition at 1 µM: read-out: Inhibition of ligand binding, Dopamine D2L; for Inhibition of ligand binding, Dopamine D2L: 1 µM
Excerpt: Non-specific binding was estimated in the presence of […] Haloperidol. Receptor proteins were filtered and washed, the filters were then counted to determine [^3H]Spiperone specifically bound. […] Biochemical assay results are presented as the percent inhibition of specific binding in Table 9.

[2] = molecular target: T1, human recombinant serotonin (5-Hydroxytryptamine) 5-HT2A receptor (Homo sapiens, UniProt P28223); assay: Serotonin 5-HT2A radioligand binding ([3H]Ketanserin); details: for inhibition at 0.1 µM: read-out: Inhibition of ligand binding, Serotonin 5-HT2A (percent inhibition of specific binding), compound at 0.1 μM; for inhibition at 1 µM: read-out: Inhibition of ligand binding, Serotonin 5-HT2A (percent inhibition of specific binding), compound at 1 μM
T1 construct: expressed in transfected cells; host or cells: Chinese hamster ovary (CHO-K1) cells
Procedure: Compounds of the invention were incubated with 0.5 nM [^3H]Ketanserin for 60 min. at 25° C. Non-specific binding was estimated in the presence of 1 μM Mianserin. Receptor proteins were filtered and washed, the filters were then counted to determine [^3H]Ketanserin specifically bound.

[3] = molecular target: T2, human recombinant serotonin (5-Hydroxytryptamine) 5-HT2C receptor (Homo sapiens, UniProt P28335); assay: Serotonin 5-HT2C radioligand binding ([3H]Mesulergine); details: for inhibition at 0.1 µM: compound at 0.1 μM; for inhibition at 0.1 µM / inhibition at 1 µM: read-out: Inhibition of ligand binding, Serotonin 5-HT2C (percent inhibition of specific binding)
T2 construct: expressed in transfected cells; host or cells: Chinese hamster ovary (CHO-K1) cells
T2 sequence (P28335 33-458): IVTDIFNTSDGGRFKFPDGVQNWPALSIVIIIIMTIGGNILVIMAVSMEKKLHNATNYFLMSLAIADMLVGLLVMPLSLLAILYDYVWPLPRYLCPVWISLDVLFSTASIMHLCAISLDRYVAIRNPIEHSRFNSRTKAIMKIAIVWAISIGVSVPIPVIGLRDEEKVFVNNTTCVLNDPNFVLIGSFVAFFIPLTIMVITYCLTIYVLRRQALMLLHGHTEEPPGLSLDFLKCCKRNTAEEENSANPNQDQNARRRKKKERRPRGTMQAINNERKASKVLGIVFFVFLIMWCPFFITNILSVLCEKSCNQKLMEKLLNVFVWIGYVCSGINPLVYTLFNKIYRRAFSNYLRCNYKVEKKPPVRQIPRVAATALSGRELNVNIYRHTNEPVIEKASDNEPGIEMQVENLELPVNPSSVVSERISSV
Outline: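 Compounds tested at 1 μM or lower (1% DMSO vehicle) for displacement of 1 nM [3H]Mesulergine over 60 min at 25° C. Specific binding determined by filtration counting, with 1 μM Mianserin defining non-specific binding; values are percent inhibition.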

[4] = molecular target: T3, human recombinant serotonin (5-Hydroxytryptamine) 5-HT6 receptor (Homo sapiens, UniProt P50406); assay: Serotonin 5-HT6 radioligand binding ([3H]LSD); details: read-out: Inhibition of ligand binding, Serotonin 5-HT6 (percent inhibition of specific binding); for inhibition at 0.1 µM: compound at 0.1 μM; for inhibition at 1 µM: compound at 1 μM
T3 construct: expressed in transfected cells; host or cells: human HeLa cells
Procedure: Compounds of the invention were incubated with 1.5 nM [3H]Lysergic acid diethylamide (LSD) for 120 min. at 37° C. […] Receptor proteins were filtered and washed, the filters were then counted to determine [3H]LSD specifically bound. Compounds were screened at 1 μM or lower, using 1% DMSO as vehicle. Biochemical assay results are presented as the percent inhibition of specific binding in Table 10.

[5] = molecular target: human recombinant serotonin (5-Hydroxytryptamine) 5-HT7 receptor (Homo sapiens, UniProt P34969); assay: Serotonin 5-HT7 radioligand binding ([3H]LSD); details: for inhibition at 0.1 µM: compound at 0.1 μM; for inhibition at 0.1 µM / inhibition at 1 µM: read-out: Inhibition of ligand binding, Serotonin 5-HT7 (percent inhibition of specific binding)
Excerpt: Receptor proteins were filtered and washed, the filters were then counted to determine [^3H]LSD specifically bound.

[6] = molecular target: T4, human recombinant serotonin 5-HT1B receptor (Homo sapiens, UniProt P28222); assay: 5-HT1B radioligand binding competition assay ([3H]5-CT, CHO-K1 membranes); details: for 5-HT1B (5 μM) % Binding relative to bound radioligand: in duplicate, average
T4 construct: expressed in transfected cells; host or cells: CHO-K1 cell line, membrane extracts
Procedure: To determine the binding activity at the human recombinant serotonin 5-HT1B receptor of compounds of the invention, CHO-K1 cell line expressing the human 5-HT1B recombinant receptor was amplified to prepare membranes used for the radioligand binding assay throughout the study. Radioligand binding competition on 5-HT1B was performed by adding successively in the wells of a 96 well plate (Master Block, Greiner, 786201). […] The plate was incubated 60 min at 25° C. in a water bath and then filtered over GF/B filters (Perkin Elmer, 6005177, presoaked in 0.5% PE1 for 2 h at room temperature) with a Filtration unit (Perkin Elmer). The filters were washed 3× with 0.5 mL of ice-cold washing buffer (50 mM Tris pH 7.4). 50 μL Microscint 20 (Packard) was added and the plate was incubated 15 min on an orbital shaker and then counted with a TopCount™ for 1 min/well.
The reference value thus obtained for the test was compared to a historical value obtained from the same receptor and used to validate the experimental session. […] For replicate determinations, the maximum variability tolerated in the test was of +/−20% around the average of the replicates.
Compounds were tested for binding activity in the radioligand binding competition assay on human 5-HT1B receptor, at one concentration […], in duplicate. Dose-response data from test compounds were analyzed with XLfit (IDBS) software using nonlinear regression applied to a sigmoidal dose-response model.
Dose-response data was analyzed with XLfit (IDBS) software using non-linear regression applied to a sigmoidal dose-response model.

[7] = molecular target: T5, human recombinant histamine H2 receptor (Homo sapiens, UniProt P25021); assay: Histamine H2 radioligand binding ([125I]Aminopotentidine); details: read-out: Histamine Binding (1 μM) H2, percent inhibition of specific binding, 1 μM
T5 construct: expressed in transfected cells; host or cells: Chinese hamster ovary (CHO) K1 cells
Outline: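 Receptor source: human recombinant H2 in CHO-K1 cells, assayed in 50 mM phosphate pH 7.4. Competition against 0.1 nM [125I]aminopotentidine, 120 min, 25 °C; 3 μM tiotidine sets nonspecific binding, filter-bound counts give specific binding.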

human dopamine D2L receptor, sequence (P14416 whole entry): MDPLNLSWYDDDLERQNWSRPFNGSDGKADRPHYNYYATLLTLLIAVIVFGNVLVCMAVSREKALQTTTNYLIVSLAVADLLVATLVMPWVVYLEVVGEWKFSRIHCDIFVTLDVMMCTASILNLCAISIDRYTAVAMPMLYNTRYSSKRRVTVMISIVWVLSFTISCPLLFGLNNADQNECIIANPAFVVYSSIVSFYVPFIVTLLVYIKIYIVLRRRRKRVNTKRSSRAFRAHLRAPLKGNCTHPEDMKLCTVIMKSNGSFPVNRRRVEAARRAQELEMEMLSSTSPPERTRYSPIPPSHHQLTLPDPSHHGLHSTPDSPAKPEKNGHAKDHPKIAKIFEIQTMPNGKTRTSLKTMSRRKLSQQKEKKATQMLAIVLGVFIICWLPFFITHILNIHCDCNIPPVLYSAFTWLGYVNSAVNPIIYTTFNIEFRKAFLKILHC
T5 sequence (P25021 whole entry): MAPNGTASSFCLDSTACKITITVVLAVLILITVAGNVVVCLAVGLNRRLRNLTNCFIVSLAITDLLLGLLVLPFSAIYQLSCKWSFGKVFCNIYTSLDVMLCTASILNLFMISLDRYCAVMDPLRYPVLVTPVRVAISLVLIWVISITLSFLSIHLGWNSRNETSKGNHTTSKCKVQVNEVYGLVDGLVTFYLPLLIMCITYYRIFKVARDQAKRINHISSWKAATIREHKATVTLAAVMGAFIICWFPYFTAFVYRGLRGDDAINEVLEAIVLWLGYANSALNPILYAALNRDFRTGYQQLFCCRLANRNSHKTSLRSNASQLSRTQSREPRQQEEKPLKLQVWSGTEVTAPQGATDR
T3 sequence (P50406 whole entry): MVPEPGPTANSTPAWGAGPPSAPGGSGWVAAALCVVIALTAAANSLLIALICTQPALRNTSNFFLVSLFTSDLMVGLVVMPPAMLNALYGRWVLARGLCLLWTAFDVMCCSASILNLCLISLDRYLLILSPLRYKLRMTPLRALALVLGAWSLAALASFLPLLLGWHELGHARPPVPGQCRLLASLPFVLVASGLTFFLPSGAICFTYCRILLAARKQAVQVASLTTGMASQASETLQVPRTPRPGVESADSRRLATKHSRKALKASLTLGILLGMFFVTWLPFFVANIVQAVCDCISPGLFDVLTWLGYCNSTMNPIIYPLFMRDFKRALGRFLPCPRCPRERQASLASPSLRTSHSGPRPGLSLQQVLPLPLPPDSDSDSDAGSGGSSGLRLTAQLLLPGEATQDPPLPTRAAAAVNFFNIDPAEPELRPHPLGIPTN
human recombinant serotonin (5-Hydroxytryptamine) 5-HT7 receptor, sequence (P34969 whole entry): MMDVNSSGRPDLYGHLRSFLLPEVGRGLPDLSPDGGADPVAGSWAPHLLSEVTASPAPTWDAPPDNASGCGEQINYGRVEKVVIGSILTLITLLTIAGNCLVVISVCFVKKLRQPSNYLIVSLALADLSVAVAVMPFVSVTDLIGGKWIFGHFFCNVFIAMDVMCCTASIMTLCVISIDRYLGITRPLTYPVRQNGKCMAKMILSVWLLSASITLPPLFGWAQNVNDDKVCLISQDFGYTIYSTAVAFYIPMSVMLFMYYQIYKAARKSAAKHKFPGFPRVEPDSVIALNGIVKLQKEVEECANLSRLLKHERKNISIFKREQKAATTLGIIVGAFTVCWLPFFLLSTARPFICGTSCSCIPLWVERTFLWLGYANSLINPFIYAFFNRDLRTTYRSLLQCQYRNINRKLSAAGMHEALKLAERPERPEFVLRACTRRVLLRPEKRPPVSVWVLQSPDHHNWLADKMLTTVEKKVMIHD
histamine receptor H1, sequence (P35367 whole entry): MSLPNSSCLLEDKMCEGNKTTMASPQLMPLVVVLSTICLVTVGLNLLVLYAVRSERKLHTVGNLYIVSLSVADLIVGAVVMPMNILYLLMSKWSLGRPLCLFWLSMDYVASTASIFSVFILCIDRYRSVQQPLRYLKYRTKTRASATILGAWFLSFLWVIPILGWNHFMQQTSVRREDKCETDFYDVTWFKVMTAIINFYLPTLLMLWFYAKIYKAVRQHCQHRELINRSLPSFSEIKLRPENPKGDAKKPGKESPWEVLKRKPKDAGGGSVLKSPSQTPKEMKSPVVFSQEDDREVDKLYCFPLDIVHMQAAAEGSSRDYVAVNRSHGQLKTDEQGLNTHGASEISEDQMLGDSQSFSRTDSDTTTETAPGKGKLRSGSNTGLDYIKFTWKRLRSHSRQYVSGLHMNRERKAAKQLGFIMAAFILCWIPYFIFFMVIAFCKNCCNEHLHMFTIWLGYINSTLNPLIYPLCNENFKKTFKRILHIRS
T1 sequence (P28223 whole entry): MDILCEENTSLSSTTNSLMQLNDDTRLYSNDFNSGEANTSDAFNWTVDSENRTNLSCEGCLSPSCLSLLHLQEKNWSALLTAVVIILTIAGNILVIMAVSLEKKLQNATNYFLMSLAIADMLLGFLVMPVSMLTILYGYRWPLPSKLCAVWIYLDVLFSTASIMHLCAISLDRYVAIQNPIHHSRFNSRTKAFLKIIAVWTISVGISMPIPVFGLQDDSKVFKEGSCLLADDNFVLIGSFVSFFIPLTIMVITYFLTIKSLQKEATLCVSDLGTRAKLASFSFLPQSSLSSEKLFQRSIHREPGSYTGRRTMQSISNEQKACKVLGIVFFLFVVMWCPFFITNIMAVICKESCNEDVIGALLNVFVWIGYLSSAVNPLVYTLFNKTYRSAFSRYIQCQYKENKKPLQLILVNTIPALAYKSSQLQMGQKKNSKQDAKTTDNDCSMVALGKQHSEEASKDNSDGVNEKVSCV
T4 sequence (P28222 whole entry): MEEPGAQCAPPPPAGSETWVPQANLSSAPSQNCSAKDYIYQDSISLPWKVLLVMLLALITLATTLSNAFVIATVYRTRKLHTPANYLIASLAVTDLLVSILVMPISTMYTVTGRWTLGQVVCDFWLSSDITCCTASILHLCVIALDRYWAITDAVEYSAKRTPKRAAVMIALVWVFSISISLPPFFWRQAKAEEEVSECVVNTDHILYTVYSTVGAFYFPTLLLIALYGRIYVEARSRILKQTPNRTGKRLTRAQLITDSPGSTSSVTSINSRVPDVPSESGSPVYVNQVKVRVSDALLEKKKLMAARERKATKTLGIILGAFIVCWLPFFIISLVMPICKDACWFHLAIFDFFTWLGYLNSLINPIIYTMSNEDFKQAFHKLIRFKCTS

Row | SMILES | inhibition at 1 µM (histamine receptor H1) | inhibition at 1 µM [1] | inhibition at 0.1 µM [2] | inhibition at 0.1 µM [3] | inhibition at 0.1 µM [4] | inhibition at 0.1 µM [5] | 5-HT1B (5 μM) % Binding relative to bound radioligand [6] | Histamine Binding (1 μM) H1, percent inhibition of specific binding (histamine receptor H1) | inhibition at 1 µM [7] | Inhibition of ligand binding, Dopamine D2L [1] | inhibition at 1 µM [2] | inhibition at 1 µM ([3]; compound at 1 μM) | inhibition at 1 µM [4] | inhibition at 1 µM ([5]; compound at 1 μM) | also measured
1 | C/C(=C/n1c2c(c3cc(C)ccc31)CN(C)CC2)c1ccc(F)cc1F [Compound 274, (Z)-5-(2-(2,4-difluorophenyl)prop-1-enyl)-2,8-dimethyl-2,3,4,5-tetrahydro-1H-pyrido[4,3-b]indole] | 72% | 56% | 98% | 99% | 97% | 94% | 6% | – | – | – | – | – | – | – | –
2 | C/C(=C/n1c2c(c3cc(C)ccc31)CN(C)CC2)c1ccncc1 [Compound 224, (Z)-2,8-dimethyl-5-(2-(pyridin-4-yl)prop-1-enyl)-2,3,4,5-tetrahydro-1H-pyrido[4,3-b]indole] | 24% | 65% | 92% | 95% | 96% | 88% | 10% | 26% | 58% | 80% | 99% | 97% | 102% | 91% | –
3 | C/C(=C\n1c2c(c3ccccc31)CN(C)CC2)c1ccncc1 [Compound 217, (E)-2-methyl-5-(2-(pyridin-4-yl)prop-1-enyl)-2,3,4,5-tetrahydro-1H-pyrido[4,3-b]indole] | – | 86% | 96% | 62% | 97% | 58% | 10% | – | 50% | 88% | 98% | 87% | 102% | 73% | Inhibition of ligand binding, Serotonin 5-HT2C (percent inhibition of specific binding) ([3]; compound at 1 μM, 1 µM): 92%; Inhibition of ligand binding, Serotonin 5-HT7 (percent inhibition of specific binding) ([5]; compound at 1 μM, 1 µM): 91%
4 | C/C(=C\n1c2c(c3cc(C)ccc31)CN(C)C(C)C2)c1ccc(C)nc1 (stereo not shown) [Compound 259, (E)-2,3,8-trimethyl-5-(2-(6-methylpyridin-3-yl)prop-1-enyl)-2,3,4,5-tetrahydro-1H-pyrido[4,3-b]indole] | 10% | -12% | 96% | 92% | 21% | 81% | 25% | – | – | – | – | – | – | – | –
5 | C/C(=C\n1c2c(c3cccc(F)c31)CN(C)CC2)c1ccncc1 [Compound 223, (E)-6-fluoro-2-methyl-5-(2-(pyridin-4-yl)prop-1-enyl)-2,3,4,5-tetrahydro-1H-pyrido[4,3-b]indole] | 6% | 96% | 97% | 81% | 104% | 67% | 4% | 11% | 44% | 97% | 95% | 93% | 103% | 91% | –
6 | C/C(=C\n1c2c(c3cc(C)ccc31)CN(C)CC2)c1cccnc1 [Compound 91, (E)-2,3,4,5-tetrahydro-2,8-dimethyl-5-(2-(pyridin-3-yl)prop-1-enyl)-1H-pyrido[4,3-b]indole] | 11% | 27% | – | – | – | – | 9% | – | 52% | – | 98% | 100% | 76% | 95% | pIC50 [6]: 6.44; % Binding relative to bound radioligand (5-HT1B) ([6]; Conc. 0.08 nM): 120%; % Binding relative to bound radioligand (5-HT1B) ([6]; Conc. 5 nM): 129%; % Binding relative to bound radioligand (5-HT1B) ([6]; Conc. 20 nM): 113%; % Binding relative to bound radioligand (5-HT1B) ([6]; Conc. 78 nM): 103%; % Binding relative to bound radioligand (5-HT1B) ([6]; Conc. 313 nM): 66%; % Binding relative to bound radioligand (5-HT1B) ([6]; Conc. 1250 nM): 31%; % Binding relative to bound radioligand (5-HT1B) ([6]; Conc. 20000 nM): 1%; % Binding relative to bound radioligand (5-HT1B) ([6]; Conc. 50000 nM): −5%
